From patent publication US20100291605A1, “ASSAYS FOR S-ADENOSYLMETHIONINE-DEPENDENT […]” (WASHINGTON STATE UNIVERSITY RESEARCH FOUNDATION, priority 2006, published 2010)
Where no end group is shown, it is not given here. acyl = not defined here

Assays:
[1] = molecular target: adenine deaminase (Bacillus subtilis, UniProt P39761); type: biochemical; conditions: hypoxanthine 3.5 μM to 142 μM, in the presence of 13.3 μM adenine
[2] = molecular target: PRMT1 (Rattus norvegicus, UniProt Q63009); assay: enzyme-coupled continuous spectrophotometric methyltransferase assay (265 nm); conditions: for Vmax, R3 compared with JMH1: peptide substrates of PRMT1, in words
Sequence of PRMT1 (Q63009 whole entry): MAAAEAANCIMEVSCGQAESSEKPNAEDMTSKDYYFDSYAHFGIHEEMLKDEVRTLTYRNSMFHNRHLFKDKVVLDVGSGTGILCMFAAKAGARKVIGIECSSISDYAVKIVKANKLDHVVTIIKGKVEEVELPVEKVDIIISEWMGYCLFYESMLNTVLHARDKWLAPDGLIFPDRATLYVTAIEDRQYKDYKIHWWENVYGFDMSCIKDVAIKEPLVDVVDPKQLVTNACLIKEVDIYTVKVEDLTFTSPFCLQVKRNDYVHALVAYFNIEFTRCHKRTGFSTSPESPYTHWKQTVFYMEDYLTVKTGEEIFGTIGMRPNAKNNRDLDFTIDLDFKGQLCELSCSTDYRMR

Sequence of adenine deaminase (P39761 whole entry): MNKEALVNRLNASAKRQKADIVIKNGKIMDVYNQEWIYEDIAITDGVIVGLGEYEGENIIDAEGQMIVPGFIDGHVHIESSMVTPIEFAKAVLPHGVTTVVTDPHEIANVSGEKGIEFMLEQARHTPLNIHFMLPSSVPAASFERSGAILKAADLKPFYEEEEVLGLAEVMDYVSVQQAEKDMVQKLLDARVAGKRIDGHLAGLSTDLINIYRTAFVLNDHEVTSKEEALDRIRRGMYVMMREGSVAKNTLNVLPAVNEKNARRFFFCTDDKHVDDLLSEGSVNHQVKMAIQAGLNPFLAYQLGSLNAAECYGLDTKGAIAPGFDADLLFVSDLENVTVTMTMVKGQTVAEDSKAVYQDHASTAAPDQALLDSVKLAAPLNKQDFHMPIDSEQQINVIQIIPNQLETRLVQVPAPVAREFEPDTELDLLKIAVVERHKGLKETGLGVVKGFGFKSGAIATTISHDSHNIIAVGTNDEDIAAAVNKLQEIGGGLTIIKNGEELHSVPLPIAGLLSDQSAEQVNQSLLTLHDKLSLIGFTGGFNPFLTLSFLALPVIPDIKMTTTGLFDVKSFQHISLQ

## O=c1[nH]cnc2nc[nH]c12 [hypoxanthine]
[1]
  inhibition of adenine deaminase: did not inhibit

## acylSGRGKGGKGLGKGGAK (SEQ ID NO:1) [H4 peptide]
[2]; peptide substrate of PRMT1
  Vmax: 5.7 ± 0.2 µM/min

## acylKGGFGGRGGFGGK (SEQ ID NO:2) (acyl-KGGFGGRGGFGGK; reading uncertain; also: N-terminal acyl group not given here, printed as acylKGGFGGRGGFGGK) [JMH1]
[2]
  Vmax, R3 compared with JMH1: similar

## acylGGRGGFGGRGGFGGRGGFG (SEQ ID NO:3) [R3]
[2]; 2 μM PRMT1, 211 μM R3
  rate, continuous spectrophotometric assay: 5.1±0.2 μM AdoHyc formed/min
[2]
  Vmax, R3 compared with JMH1: similar
